Assay results taken from ChEMBL document CHEMBL1122975, “Potential inhibitors of S-adenosylmethionine-dependent methyltransferases. 9. 2',3'-Dialdehyde derivatives of carbocyclic purine nucleosides as inhibitors of S-adenosylhomocysteine hydrolase” (J Med Chem, 1985).

How the values were obtained:
L929 = assay: Percentage inhibition of plaque formation, after 72 hr of incubation in virus plaque assay, prepared from monolayer cultures of mouse L 929 cells; type: functional; parameters: concentration or dose not given beside the values
[1] = test system: Adenosylhomocysteinase (Bos taurus); assay: Compound is evaluated for the inhibition of bovine liver S-adenosyl-homocysteine hydrolase at a concentration of 2.0 mM
L cells [2] = assay: Percentage control of incorporation of [3H]thymidine into DNA of uninfected L-cell cultures after 36h exposure; type: functional, Mus musculus, L929; parameters: concentration or dose not given beside the values
L cells [3] = assay: Percentage control of incorporation of [3H]thymidine into DNA of uninfected L-cell cultures after 72 hr exposure; type: functional, Mus musculus, L929; parameters: concentration or dose not given beside the values

## Nc1ncnc2c1nnn2C(CO)CC(CO)CO (configuration not stated)
L929
  Inhibition: 11%
[1]
  inhibition: 94%

## CNc1ncnc2c1ncn2C(CO)CC(CO)CO (configuration not stated)
L929
  Inhibition: 7%
[1]
  inhibition: 82%

## CNc1ncnc2c1ncn2C1CC(CO)C(O)C1O (configuration not stated)
L929
  Inhibition: 19%
L cells [2]
  Control: 95%
L cells [3]
  Control: 137%

## Nc1ncnc2c1nnn2C1CC(CO)C(O)C1O (configuration not stated)
L929
  Inhibition: 7%
L cells [2]
  Control: 89%
L cells [3]
  Control: 146%

## Nc1ncnc2c1ncn2[C@@H]1C[C@H](CO)[C@@H](O)[C@H]1O [ARISTEROMYCIN]
L929
  Inhibition: 65%
L cells [2]
  Control: 81%
L cells [3]
  Control: 134%

## Nc1ncnc2c1ncn2C(C=O)CC(C=O)CO (configuration not stated)
L929
  Inhibition: 75%
L cells [2]
  Control: 67%
L cells [3]
  Control: 130%

## Nc1nccc2c1ncn2C(C=O)CC(C=O)CO (configuration not stated)
L929
  Inhibition: 91%
L cells [2]
  Control: 107%
L cells [3]
  Control: 133%

## CNc1ncnc2c1ncn2C(C=O)CC(C=O)CO (configuration not stated)
L929
  Inhibition: 60%
L cells [2]
  Control: 63%
L cells [3]
  Control: 106%

## Nc1nccc2c1ncn2[C@@H]1C[C@H](CO)[C@@H](O)[C@H]1O [3-DEAZAARISTEROMYCIN A]
L929
  Inhibition: 95%
L cells [2]
  Control: 86%
L cells [3]
  Control: 246%

## Nc1nccc2c1ncn2C(CO)CC(CO)CO (configuration not stated)
L929
  Inhibition: 9%
[1]
  inhibition: 94%

## Nc1ncnc2c1nnn2C(C=O)CC(C=O)CO (configuration not stated)
L929
  Inhibition: 63%
L cells [2]
  Control: 91%
L cells [3]
  Control: 81%

## Nc1ncnc2c1ncn2C(CO)CC(CO)CO (configuration not stated)
L929
  Inhibition: 13%
[1]
  inhibition: 98%
